Results published in ChEMBL document CHEMBL1134363 (J Med Chem, 2001).

What was measured:
[1] = target: T1, Adrenergic receptor alpha-2 (Rattus norvegicus, UniProt P22086+P19328+P22909); assay: In vitro binding affinity against alpha-2 adrenergic receptor of rat in presence of [3H]-RX 821002 radioligand; format: protein assay
T1 sequence (P22086 whole entry): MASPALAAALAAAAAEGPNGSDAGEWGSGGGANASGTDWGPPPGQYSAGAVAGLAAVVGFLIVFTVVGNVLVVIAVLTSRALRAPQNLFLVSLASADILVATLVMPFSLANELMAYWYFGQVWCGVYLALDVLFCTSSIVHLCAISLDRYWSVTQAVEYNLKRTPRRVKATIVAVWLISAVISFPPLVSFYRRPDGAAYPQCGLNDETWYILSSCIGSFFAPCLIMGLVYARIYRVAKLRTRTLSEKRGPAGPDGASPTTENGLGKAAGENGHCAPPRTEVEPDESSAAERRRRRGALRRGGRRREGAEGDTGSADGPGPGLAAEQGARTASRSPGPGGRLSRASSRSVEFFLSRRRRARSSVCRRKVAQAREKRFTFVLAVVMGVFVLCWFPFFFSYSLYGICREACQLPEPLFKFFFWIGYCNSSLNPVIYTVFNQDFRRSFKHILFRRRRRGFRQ
T1 sequence (P19328 whole entry): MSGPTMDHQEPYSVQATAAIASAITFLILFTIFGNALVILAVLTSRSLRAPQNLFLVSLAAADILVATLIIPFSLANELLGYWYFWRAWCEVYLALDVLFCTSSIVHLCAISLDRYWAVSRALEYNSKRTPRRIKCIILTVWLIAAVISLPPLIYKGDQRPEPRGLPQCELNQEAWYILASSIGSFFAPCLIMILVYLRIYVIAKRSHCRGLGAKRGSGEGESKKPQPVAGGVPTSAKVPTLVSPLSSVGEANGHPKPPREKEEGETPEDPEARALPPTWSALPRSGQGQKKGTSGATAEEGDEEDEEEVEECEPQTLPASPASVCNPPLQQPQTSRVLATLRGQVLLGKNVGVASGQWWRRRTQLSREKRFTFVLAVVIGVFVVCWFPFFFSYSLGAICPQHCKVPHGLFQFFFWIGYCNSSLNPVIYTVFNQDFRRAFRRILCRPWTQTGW
T1 sequence (P22909 whole entry): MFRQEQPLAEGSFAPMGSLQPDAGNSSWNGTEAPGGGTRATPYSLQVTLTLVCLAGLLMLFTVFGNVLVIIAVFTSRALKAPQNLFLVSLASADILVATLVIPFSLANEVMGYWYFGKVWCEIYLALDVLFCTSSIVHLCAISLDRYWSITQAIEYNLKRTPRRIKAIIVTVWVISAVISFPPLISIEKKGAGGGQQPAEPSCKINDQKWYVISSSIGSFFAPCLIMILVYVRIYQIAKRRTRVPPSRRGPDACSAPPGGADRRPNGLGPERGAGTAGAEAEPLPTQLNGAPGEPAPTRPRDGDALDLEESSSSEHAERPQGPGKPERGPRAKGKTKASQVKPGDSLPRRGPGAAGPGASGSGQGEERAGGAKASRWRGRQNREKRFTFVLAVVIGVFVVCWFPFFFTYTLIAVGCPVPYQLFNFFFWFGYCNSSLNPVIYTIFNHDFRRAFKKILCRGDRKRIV

[2] = target: T2, Adrenergic receptor alpha-1 (Rattus norvegicus, UniProt P15823+P23944+P43140); assay: In vitro binding affinity against alpha-1 adrenergic receptor of rat in presence of [3H]-prazosin radioligand; format: protein assay
T2 sequence (P15823 whole entry): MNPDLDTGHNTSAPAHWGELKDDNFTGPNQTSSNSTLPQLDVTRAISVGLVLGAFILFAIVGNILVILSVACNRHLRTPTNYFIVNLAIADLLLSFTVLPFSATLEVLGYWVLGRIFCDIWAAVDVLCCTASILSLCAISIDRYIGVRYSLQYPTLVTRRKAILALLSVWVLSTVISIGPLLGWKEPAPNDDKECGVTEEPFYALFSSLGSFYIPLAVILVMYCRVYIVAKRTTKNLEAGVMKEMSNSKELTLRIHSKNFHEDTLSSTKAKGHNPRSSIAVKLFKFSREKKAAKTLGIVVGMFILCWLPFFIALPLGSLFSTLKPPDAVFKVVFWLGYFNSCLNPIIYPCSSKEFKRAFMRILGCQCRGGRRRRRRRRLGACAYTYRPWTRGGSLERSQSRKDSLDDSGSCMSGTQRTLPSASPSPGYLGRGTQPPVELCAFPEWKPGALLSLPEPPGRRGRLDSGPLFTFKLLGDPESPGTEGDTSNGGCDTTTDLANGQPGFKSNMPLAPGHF
T2 sequence (P23944 whole entry): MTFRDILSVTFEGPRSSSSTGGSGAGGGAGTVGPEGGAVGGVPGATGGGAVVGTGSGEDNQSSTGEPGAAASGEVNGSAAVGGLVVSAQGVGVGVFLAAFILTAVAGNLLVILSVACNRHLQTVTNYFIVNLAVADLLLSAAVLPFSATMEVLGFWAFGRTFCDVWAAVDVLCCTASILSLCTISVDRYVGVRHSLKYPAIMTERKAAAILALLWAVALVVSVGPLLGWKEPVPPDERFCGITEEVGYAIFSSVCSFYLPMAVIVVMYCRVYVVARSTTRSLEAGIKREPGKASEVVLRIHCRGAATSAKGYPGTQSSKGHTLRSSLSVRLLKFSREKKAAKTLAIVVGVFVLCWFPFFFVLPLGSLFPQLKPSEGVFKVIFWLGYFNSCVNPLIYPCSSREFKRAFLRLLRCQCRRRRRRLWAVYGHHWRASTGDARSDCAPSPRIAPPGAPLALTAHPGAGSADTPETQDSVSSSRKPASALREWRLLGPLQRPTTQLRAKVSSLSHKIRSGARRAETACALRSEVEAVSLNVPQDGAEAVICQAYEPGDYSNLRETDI
T2 sequence (P43140 whole entry): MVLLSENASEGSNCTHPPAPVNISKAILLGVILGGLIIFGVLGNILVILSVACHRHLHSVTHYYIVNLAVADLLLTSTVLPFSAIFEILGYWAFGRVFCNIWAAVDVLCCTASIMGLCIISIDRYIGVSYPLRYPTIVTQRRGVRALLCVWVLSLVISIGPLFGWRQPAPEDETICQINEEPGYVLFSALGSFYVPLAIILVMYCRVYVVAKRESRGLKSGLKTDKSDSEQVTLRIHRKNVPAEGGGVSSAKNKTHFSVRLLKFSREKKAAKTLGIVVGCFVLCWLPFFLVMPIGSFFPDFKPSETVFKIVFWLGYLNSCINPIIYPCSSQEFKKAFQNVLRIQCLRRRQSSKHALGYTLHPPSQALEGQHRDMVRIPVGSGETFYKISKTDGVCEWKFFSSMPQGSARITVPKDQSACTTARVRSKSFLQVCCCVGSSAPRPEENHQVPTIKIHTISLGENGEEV

[3] = target: Norepinephrine transporter (Rattus norvegicus, UniProt Q9WTR4); assay: In vitro binding affinity was determined against NA (noradrenaline) reuptake site of rat in presence of [3H]nisoxetine radioligand
[4] = target: Sodium-dependent serotonin transporter (Rattus norvegicus, UniProt P31652); assay: In vitro binding affinity was determined against serotonin reuptake site of rat in presence of [3H]paroxetine radioligand
Chain of Sodium-dependent serotonin transporter (P31652 whole entry): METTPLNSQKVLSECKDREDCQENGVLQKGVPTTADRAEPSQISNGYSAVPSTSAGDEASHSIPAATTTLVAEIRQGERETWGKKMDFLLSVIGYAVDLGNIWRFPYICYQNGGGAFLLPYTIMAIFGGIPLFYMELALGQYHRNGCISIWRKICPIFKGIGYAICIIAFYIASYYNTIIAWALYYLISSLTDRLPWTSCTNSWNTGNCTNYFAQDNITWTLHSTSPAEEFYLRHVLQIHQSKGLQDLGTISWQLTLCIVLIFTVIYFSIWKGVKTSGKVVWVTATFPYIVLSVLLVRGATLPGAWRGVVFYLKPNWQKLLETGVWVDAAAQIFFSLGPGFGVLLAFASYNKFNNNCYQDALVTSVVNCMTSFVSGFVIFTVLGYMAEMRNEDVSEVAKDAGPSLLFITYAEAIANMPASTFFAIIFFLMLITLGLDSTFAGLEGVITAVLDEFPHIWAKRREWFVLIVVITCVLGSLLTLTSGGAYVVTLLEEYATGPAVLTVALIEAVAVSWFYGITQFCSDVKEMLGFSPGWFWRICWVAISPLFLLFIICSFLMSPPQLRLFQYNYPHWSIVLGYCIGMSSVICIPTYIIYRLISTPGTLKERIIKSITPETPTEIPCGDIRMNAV

Chain of Norepinephrine transporter (Q9WTR4 whole entry): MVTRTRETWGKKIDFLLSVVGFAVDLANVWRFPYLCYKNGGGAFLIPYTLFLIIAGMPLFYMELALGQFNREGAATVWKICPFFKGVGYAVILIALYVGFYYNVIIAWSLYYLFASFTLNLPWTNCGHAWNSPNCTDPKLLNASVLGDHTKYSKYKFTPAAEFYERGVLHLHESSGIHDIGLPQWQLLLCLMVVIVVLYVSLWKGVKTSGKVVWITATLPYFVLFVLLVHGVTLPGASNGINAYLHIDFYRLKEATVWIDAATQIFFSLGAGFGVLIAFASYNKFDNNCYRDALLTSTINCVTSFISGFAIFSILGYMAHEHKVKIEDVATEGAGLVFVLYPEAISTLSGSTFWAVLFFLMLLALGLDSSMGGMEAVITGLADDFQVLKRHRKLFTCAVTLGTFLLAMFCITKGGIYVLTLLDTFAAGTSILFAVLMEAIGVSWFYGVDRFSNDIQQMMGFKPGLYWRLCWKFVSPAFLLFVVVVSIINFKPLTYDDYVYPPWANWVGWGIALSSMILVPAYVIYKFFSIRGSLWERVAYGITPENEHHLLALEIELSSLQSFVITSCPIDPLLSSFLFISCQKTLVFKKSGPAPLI

C[C@@]1(C[C@H]2CN=CN2)CCc2ccccc2C1
Log Ki [1]: -6.6 | Log Ki [2]: -5.7 | Ki [3]: 63.1 nM | Ki [4]: 31.6 nM

Cc1ccc2c(c1)C=C(CC1CN=CN1)CC2 (stereo not drawn)
Log Ki [1]: -6.8 | Log Ki [2]: -6.4 | Ki [3]: 1000 nM | Ki [4]: 63.1 nM

C1=NC[C@@H](C2CC23Cc2ccccc2C3)N1 (stereo partly drawn)
Log Ki [1]: -7.1 | Log Ki [2]: -5.2 | Ki [3]: 316 nM | Ki [4]: 398 nM

C1=NCC(CC2CCc3ccccc3C2)N1 (stereo not drawn)
Log Ki [1]: -7.8 | Log Ki [2]: -6.1 | Ki [3]: 100 nM | Ki [4]: 10 nM

Cc1ccc2c(c1)C=C(CC1CN=C(N)O1)CC2 (stereo not drawn)
Log Ki [1]: -5.8 | Log Ki [2]: -6.6 | Ki [3]: > 1000 nM | Ki [4]: 251 nM

C1=NCC([C@H]2[C@@H]3Cc4ccccc4C[C@@H]32)N1 (stereo partly drawn)
Log Ki [1]: -6.3 | Log Ki [2]: -6.3 | Ki [4]: 631 nM

NC1=NCC(CC2=Cc3ccccc3CC2)O1 (stereo not drawn)
Log Ki [1]: -6 | Ki [3]: 1000 nM | Ki [4]: 63.1 nM

C1=NCC(CC2COc3ccccc3O2)N1 (stereo not drawn)
Log Ki [1]: -7.5 | Log Ki [2]: -6.2 | Ki [3]: 1000 nM | Ki [4]: 1260 nM

Fc1cc2c(cc1F)CC(CC1CN=CN1)C2 (stereo not drawn)
Log Ki [1]: -7.3 | Log Ki [2]: -6.1 | Ki [3]: 100 nM | Ki [4]: 12.6 nM

CC1(CC2=Cc3ccccc3CC2)CN=CN1 (stereo not drawn)
Log Ki [1]: -6.1 | Log Ki [2]: -5.9 | Ki [3]: 316 nM | Ki [4]: 63.1 nM

Fc1cccc2c1CC(CC1CN=CN1)C2 (stereo not drawn)
Log Ki [1]: -8.9 | Log Ki [2]: -6.8 | Ki [3]: 100 nM | Ki [4]: 100 nM

Cc1ccc2c(c1)CCC(CC1CN=CN1)=C2 (stereo not drawn)
Log Ki [1]: -6.4 | Ki [3]: > 1000 nM | Ki [4]: 15.8 nM

C1=C(Cc2c[nH]cn2)CCc2ccccc21
Log Ki [1]: -8.9 | Log Ki [2]: -7.3 | Ki [3]: 794 nM | Ki [4]: 631 nM

COc1cccc2c1C=C(CC1CN=CN1)CC2 (stereo not drawn)
Log Ki [1]: -7.6 | Log Ki [2]: -6.8 | Ki [3]: 1000 nM

C1=NCC(CC2=Cc3ccccc3OC2)N1 (stereo not drawn)
Log Ki [1]: -6.9 | Log Ki [2]: -5.8 | Ki [3]: 63.1 nM | Ki [4]: 251 nM

C1=NC[C@@]2(CC[C@@H]3Cc4ccccc4C[C@H]3C2)N1 (relative stereo)
Log Ki [1]: -6.1 | Log Ki [2]: -6.2 | Ki [3]: > 1000 nM | Ki [4]: 25.1 nM

Cc1cccc2c1C=C(CC1CN=CN1)CC2 (stereo not drawn)
Log Ki [1]: -6.8 | Log Ki [2]: -6.2 | Ki [3]: 1000 nM | Ki [4]: 12.6 nM

CC1(C)CC(CC2CN=CN2)=Cc2ccccc21 (stereo not drawn)
Log Ki [1]: -6 | Log Ki [2]: -6.1 | Ki [3]: 39.8 nM | Ki [4]: > 10000 nM

NC1=NC(CC2=Cc3ccccc3CC2)CN1 (stereo not drawn)
Log Ki [1]: -6.5 | Log Ki [2]: -7.2 | Ki [3]: 79.4 nM | Ki [4]: 39.8 nM

NC1=NCC(CC2=Cc3c(Cl)cccc3CC2)O1 (stereo not drawn)
Log Ki [1]: -6.2 | Log Ki [2]: -6.5 | Ki [3]: > 1000 nM

Clc1cccc2c1CC(CC1CN=CN1)CC2 (stereo not drawn)
Log Ki [1]: -8.8 | Log Ki [2]: -6.5 | Ki [3]: 100 nM | Ki [4]: 5.01 nM

Fc1ccc2oc(CC3CN=CN3)cc2c1 (stereo not drawn)
Log Ki [1]: -7 | Ki [3]: 794 nM | Ki [4]: 158 nM

Fc1ccc2c(c1)CC(CC1CN=CN1)C2 (stereo not drawn)
Log Ki [1]: -8.1 | Log Ki [2]: -6.2 | Ki [3]: 316 nM

C1=NC[C@@H](C[C@]23CCc4ccccc4C2C3)N1 (stereo partly drawn)
Log Ki [1]: -7.2 | Log Ki [2]: -5.9 | Ki [3]: 316 nM | Ki [4]: 20 nM

C1=C(CC2=NCCN2)CCc2ccccc21 [NAPAMEZOLE]
Log Ki [1]: -8.5 | Log Ki [2]: -7 | Ki [3]: > 1000 nM | Ki [4]: 200 nM

Cc1cc2c(cc1C)CC(CC1CN=CN1)C2 (stereo not drawn)
Log Ki [1]: -7.6 | Log Ki [2]: -6.7 | Ki [3]: 25.1 nM | Ki [4]: 20 nM

C1=NCC2(CC3(Cc4ccccc4C3)C2)N1
Log Ki [1]: -6.2 | Log Ki [2]: -5.3 | Ki [3]: > 10000 nM | Ki [4]: 6310 nM

C1=NCC(Cc2cc3cc(-c4ccccc4)ccc3o2)N1 (stereo not drawn)
Log Ki [1]: < -5 | Log Ki [2]: < -5.5 | Ki [3]: 158 nM | Ki [4]: > 10000 nM

C1=NC[C@H](C2CC23Cc2ccccc2C3)N1 (stereo partly drawn)
Log Ki [1]: -9.1 | Log Ki [2]: -6.9 | Ki [3]: 31.6 nM | Ki [4]: 50.1 nM

C1=NC[C@H](C2C[C@@]23CCc2ccccc2C3)N1 (stereo partly drawn)
Log Ki [1]: -6.6 | Log Ki [2]: -6 | Ki [3]: 398 nM | Ki [4]: 25.1 nM

C1=NCC([C@@H]2[C@@H]3Cc4ccccc4C[C@@H]32)N1 (stereo partly drawn)
Log Ki [1]: -5.5 | Log Ki [2]: -6.1 | Ki [3]: 50.1 nM | Ki [4]: > 1000 nM

NC1=NC(CC2=Cc3ccccc3CC2)CO1 (stereo not drawn)
Log Ki [1]: -7.3 | Ki [3]: 501 nM | Ki [4]: 158 nM

COc1ccc2c(c1)C=C(CC1CN=CN1)CC2 (stereo not drawn)
Log Ki [1]: -6.3 | Log Ki [2]: -5.6 | Ki [3]: > 1000 nM | Ki [4]: 200 nM

C1=NC[C@@H]([C@H]2[C@@H]3CCc4ccccc4[C@@H]32)N1
Log Ki [1]: -6.4 | Ki [3]: 251 nM | Ki [4]: > 3160 nM

C1=NC(CC2CCc3ccccc3O2)CN1 (stereo not drawn)
Log Ki [1]: -7.3 | Log Ki [2]: -6.5 | Ki [3]: 794 nM | Ki [4]: 501 nM

Cc1ccc2c(c1)CCC(CC1CN=C(N)O1)=C2 (stereo not drawn)
Log Ki [1]: -5.8 | Ki [3]: > 1000 nM | Ki [4]: 79.4 nM

FC(F)(F)c1ccc2c(c1)C=C(CC1CN=CN1)CC2 (stereo not drawn)
Log Ki [1]: -6.4 | Log Ki [2]: -5.9 | Ki [3]: > 10000 nM | Ki [4]: 158 nM
